pKi: −log10 of the molar value.
Experiments:
[1] = biological target: T1, Human Neuropeptide Y2 Receptor (Homo sapiens, UniProt P49146); assay: Radioligand binding competition assay (RLB); conditions: Table 3, 125I-PYY(1-36) competition; read-out: Ki
T1 construct: purchased CHEMICON HTS066M
T1 sequence (P49146 1-381): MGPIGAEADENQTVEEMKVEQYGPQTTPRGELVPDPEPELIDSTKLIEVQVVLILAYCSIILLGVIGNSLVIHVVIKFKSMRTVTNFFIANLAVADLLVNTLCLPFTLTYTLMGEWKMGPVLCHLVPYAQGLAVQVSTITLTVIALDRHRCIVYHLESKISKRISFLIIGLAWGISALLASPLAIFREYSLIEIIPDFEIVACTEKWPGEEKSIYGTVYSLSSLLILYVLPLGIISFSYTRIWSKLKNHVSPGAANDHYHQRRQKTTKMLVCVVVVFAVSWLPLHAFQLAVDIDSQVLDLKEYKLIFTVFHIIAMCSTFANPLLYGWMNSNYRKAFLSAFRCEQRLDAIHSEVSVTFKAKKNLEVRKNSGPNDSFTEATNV
Summary of the method: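 Displacement of radioligand is measured after 2 h at room temperature with receptor membranes in Mg2+/Ca2+ HEPES buffer, pH 7.4. Filter-bound radioactivity is counted and IC50 obtained from curve fitting.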

Solubility determination = conditions: for Sol6: pH 6; for Sol7: pH 7
Summary of the method: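 Shake-flask style: 10 mg/ml peptide (TFA salt), 0.1 M sodium diphosphate pH 6.4/7.0, 600 rpm, 2 h, RT; filter; dilute 1 mg/ml in 50% MeCN; RP-UPLC, 0–100% B over 2 min, 50 °C. Solubility = sample/control area ratio. Final pH recorded.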

Compound | pKi [1] | Sol6 (Solubility determination) | Sol7 (Solubility determination)
CC(C)CC(=O)N[C@@H](C)C(=O)N1CCC[C@H]1C(=O)N[C@@H](CCC(=O)O)C(=O)N[C@@H](CCCCNC(=O)CCCCCNC(=O)CC[C@H](NC(=O)CCCCCCCCCCCCCCCCC(=O)O)C(=O)O)C(=O)N1CCC[C@H]1C(=O)N[C@@H](CCC(=O)O)C(=O)N[C@@H](CCC(=O)O)C(=O)N[C@@H](CC(=O)O)C(=O)N[C@@H](CC(C)C)C(=O)N[C@H](C(=O)N1CCC[C@H]1C(=O)N[C@@H](CCC(=O)O)C(=O)N[C@@H](CCC(=O)O)C(=O)N[C@@H](CC(C)C)C(=O)N[C@@H](CCC(N)=O)C(=O)N[C@@H](CCCNC(=N)N)C(=O)N[C@@H](Cc1ccc(O)cc1)C(=O)N[C@@H](Cc1ccc(O)cc1)C(=O)N[C@H](C(=O)N[C@@H](CO)C(=O)N[C@@H](CC(C)C)C(=O)N[C@@H](CCCNC(=N)N)C(=O)N[C@@H](Cc1c[nH]cn1)C(=O)N[C@@H](Cc1ccc(O)cc1)C(=O)N[C@@H](Cc1ccc(O)cc1)C(=O)N[C@@H](CC(N)=O)C(=O)N[C@@H](Cc1c[nH]c2ccccc12)C(=O)N[C@@H](CC(C)C)C(=O)N[C@H](C(=O)N[C@@H](CCCNC(=N)N)C(=O)N[C@@H](CCC(N)=O)C(=O)N[C@@H](CCCNC(=N)N)C(=O)N[C@@H](Cc1ccc(O)cc1)C(N)=O)[C@@H](C)O)C(C)C)[C@@H](C)O [Compound 109, N{alpha-4}-(3-methylbutanoyl)-N{epsilon-7}-(6-[(4S)-4-carboxy-4-(17-carboxyheptadecanamido)butanamido]hexanoyl)-[4A,7K,9E,12L,13T,18Q,22V,28Y,30W,31L]-hPYY(4-36)] | 7.85 | 10.0 mg/mL | 8.5 mg/mL
CC(C)CC(=O)N[C@@H](C)C(=O)N1CCC[C@H]1C(=O)N[C@@H](CCC(=O)O)C(=O)N[C@@H](CCCCNC(=O)CCCCCNC(=O)CC[C@H](NC(=O)CCCCCCCCCCCCCCCCC(=O)O)C(=O)O)C(=O)N1CCC[C@H]1C(=O)N[C@@H](CCC(=O)O)C(=O)N[C@@H](CCC(=O)O)C(=O)N[C@@H](CC(=O)O)C(=O)N[C@@H](C)C(=O)N[C@H](C(=O)N1CCC[C@H]1C(=O)N[C@@H](CCC(=O)O)C(=O)N[C@@H](CCC(=O)O)C(=O)N[C@H](C(=O)N[C@@H](CCC(N)=O)C(=O)N[C@@H](CCCNC(=N)N)C(=O)N[C@@H](Cc1ccc(O)cc1)C(=O)N[C@@H](Cc1ccc(O)cc1)C(=O)N[C@H](C(=O)N[C@@H](CO)C(=O)N[C@@H](CC(C)C)C(=O)N[C@@H](CCCNC(=N)N)C(=O)N[C@@H](Cc1c[nH]cn1)C(=O)N[C@@H](Cc1ccc(O)cc1)C(=O)N[C@@H](Cc1ccc(O)cc1)C(=O)N[C@@H](CC(N)=O)C(=O)N[C@@H](Cc1c[nH]c2ccccc12)C(=O)N[C@@H](CC(C)C)C(=O)N[C@H](C(=O)N[C@@H](CCCNC(=N)N)C(=O)N[C@@H](CCC(N)=O)C(=O)N[C@@H](CCCNC(=N)N)C(=O)N[C@@H](Cc1ccc(O)cc1)C(N)=O)[C@@H](C)O)C(C)C)[C@@H](C)O)[C@@H](C)O [Compound 152, N{alpha-4}-(3-methylbutanoyl)-N{epsilon-7}-(6-[(4S)-4-carboxy-4-(17-carboxyheptadecanamido)butanamido]hexanoyl)-[4A,7K,9E,13T,17T,18Q,22V,28Y,30W,31L]-hPYY(4-36)] | 8.88 | 8.8 mg/mL | 8.8 mg/mL
CC(C)CC(=O)N[C@@H](C)C(=O)N1CCC[C@H]1C(=O)N[C@@H](CCC(=O)O)C(=O)N[C@@H](CCCCNC(=O)CCCCCNC(=O)CC[C@H](NC(=O)CCCCCCCCCCCCCCCCC(=O)O)C(=O)O)C(=O)N1CCC[C@H]1C(=O)N[C@@H](CCC(=O)O)C(=O)N[C@@H](CCC(=O)O)C(=O)N[C@@H](CC(=O)O)C(=O)N[C@@H](C)C(=O)N[C@H](C(=O)N1CCC[C@H]1C(=O)N[C@@H](CCC(=O)O)C(=O)N[C@@H](CCC(=O)O)C(=O)N[C@@H](CC(C)C)C(=O)N[C@@H](CCC(N)=O)C(=O)N[C@@H](CC(C)C)C(=O)N[C@@H](Cc1ccc(O)cc1)C(=O)N[C@@H](Cc1ccc(O)cc1)C(=O)N[C@H](C(=O)N[C@@H](CO)C(=O)N[C@@H](CC(C)C)C(=O)N[C@@H](CCCNC(=N)N)C(=O)N[C@@H](Cc1c[nH]cn1)C(=O)N[C@@H](Cc1ccc(O)cc1)C(=O)N[C@@H](Cc1ccc(O)cc1)C(=O)N[C@@H](CC(N)=O)C(=O)N[C@@H](Cc1c[nH]c2ccccc12)C(=O)N[C@@H](CC(C)C)C(=O)N[C@H](C(=O)N[C@@H](CCCNC(=N)N)C(=O)N[C@@H](CCC(N)=O)C(=O)N[C@@H](CCCNC(=N)N)C(=O)N[C@@H](Cc1ccc(O)cc1)C(N)=O)[C@@H](C)O)C(C)C)[C@@H](C)O [Compound 130, N{alpha-4}-(3-methylbutanoyl)-N{epsilon-7}-(6-[(4S)-4-carboxy-4-(17-carboxyheptadecanamido)butanamido]hexanoyl)-[4A,7K,9E,13T,18Q,19L,22V,28Y,30W,31L]-hPYY(4-36)] | 8.03 | 9.9 mg/mL | 10.0 mg/mL
CC(C)CC(=O)N[C@@H](C)C(=O)N1CCC[C@H]1C(=O)N[C@@H](CCC(=O)O)C(=O)N[C@@H](CCCCNC(=O)CCCCCNC(=O)CC[C@H](NC(=O)CCCCCCCCCCCCCCCCC(=O)O)C(=O)O)C(=O)N1CCC[C@H]1C(=O)N[C@@H](CCC(=O)O)C(=O)N[C@@H](CCC(=O)O)C(=O)N[C@@H](CC(=O)O)C(=O)N[C@@H](C)C(=O)N[C@@H](CCC(=O)O)C(=O)N1CCC[C@H]1C(=O)N[C@@H](CCC(=O)O)C(=O)N[C@@H](CCC(=O)O)C(=O)N[C@@H](CO)C(=O)N[C@@H](CCC(N)=O)C(=O)N[C@@H](CCCNC(=N)N)C(=O)N[C@@H](Cc1ccc(O)cc1)C(=O)N[C@@H](Cc1ccc(O)cc1)C(=O)N[C@H](C(=O)N[C@@H](CO)C(=O)N[C@@H](CC(C)C)C(=O)N[C@@H](CCCNC(=N)N)C(=O)N[C@@H](Cc1c[nH]cn1)C(=O)N[C@@H](Cc1ccc(O)cc1)C(=O)N[C@@H](Cc1ccc(O)cc1)C(=O)N[C@@H](CC(N)=O)C(=O)N[C@@H](Cc1c[nH]c2ccccc12)C(=O)N[C@@H](CC(C)C)C(=O)N[C@H](C(=O)N[C@@H](CCCNC(=N)N)C(=O)N[C@@H](CCC(N)=O)C(=O)N[C@@H](CCCNC(=N)N)C(=O)N[C@@H](Cc1ccc(O)cc1)C(N)=O)[C@@H](C)O)C(C)C [Compound 27, N{alpha-4}-(3-methylbutanoyl)-N{epsilon-7}-(6-[(4S)-4-carboxy-4-(17-carboxyheptadecanamido)butanamido]hexanoyl)[4A,7K,9E,13E,17S,18Q,22V,28Y,30W,31L]-hPYY(4-36)] | 7.98 | 9.1 mg/mL | 9.4 mg/mL

More lines, now with the values ahead:

pKi [1] | Sol6 (Solubility determination) | Sol7 (Solubility determination) | Compound
8.85 | 0.0 mg/mL | 2.4 mg/mL | CC(C)CC(=O)N[C@@H](C)C(=O)N1CCC[C@H]1C(=O)N[C@@H](C)C(=O)N[C@@H](CCCCNC(=O)CCCCCNC(=O)CC[C@H](NC(=O)CCCCCCCCCCCCCCCCC(=O)O)C(=O)O)C(=O)N1CCC[C@H]1C(=O)N[C@@H](CCC(=O)O)C(=O)N[C@@H](CCC(=O)O)C(=O)N[C@@H](C)C(=O)N[C@@H](C)C(=O)N[C@H](C(=O)N1CCC[C@H]1C(=O)N[C@@H](CCC(=O)O)C(=O)N[C@@H](CCC(=O)O)C(=O)N[C@@H](CC(C)C)C(=O)N[C@@H](CCC(N)=O)C(=O)N[C@@H](CCCNC(=N)N)C(=O)N[C@@H](Cc1ccc(O)cc1)C(=O)N[C@@H](Cc1ccc(O)cc1)C(=O)N[C@H](C(=O)N[C@@H](CO)C(=O)N[C@@H](CC(C)C)C(=O)N[C@@H](CCCNC(=N)N)C(=O)N[C@@H](Cc1c[nH]cn1)C(=O)N[C@@H](Cc1ccc(O)cc1)C(=O)N[C@@H](Cc1ccc(O)cc1)C(=O)N[C@@H](CC(N)=O)C(=O)N[C@@H](Cc1c[nH]c2ccccc12)C(=O)N[C@@H](CC(C)C)C(=O)N[C@H](C(=O)N[C@@H](CCCNC(=N)N)C(=O)N[C@@H](CCC(N)=O)C(=O)N[C@@H](CCCNC(=N)N)C(=O)N[C@@H](Cc1ccc(O)cc1)C(N)=O)[C@@H](C)O)C(C)C)[C@@H](C)O [Compound 35, N{alpha-4}-(3-methylbutanoyl)-N{epsilon-7}-(6-[(4S)-4-carboxy-4-(17-carboxyheptadecanamido)butanamido]hexanoyl)[4A,6A,7K,9E,11A,13T,18Q,22V,28Y,30W,31L]-hPYY(4-36)]
8.77 | 9.4 mg/mL | 9.7 mg/mL | CC[C@H](C)[C@H](NC(=O)[C@H](CCC(=O)O)NC(=O)[C@H](CCC(=O)O)NC(=O)[C@@H]1CCCN1C(=O)[C@H](CO)NC(=O)[C@H](C)NC(=O)[C@H](CC(=O)O)NC(=O)[C@H](CCC(=O)O)NC(=O)[C@H](CCC(=O)O)NC(=O)[C@@H]1CCCN1C(=O)[C@H](CCCCNC(=O)CCCCCNC(=O)CC[C@H](NC(=O)CCCCCCCCCCCCCCCCC(=O)O)C(=O)O)NC(=O)[C@H](CCC(=O)O)NC(=O)[C@@H]1CCCN1C(=O)[C@H](C)NC(=O)CC(C)C)C(=O)N[C@@H](CCC(N)=O)C(=O)N[C@@H](CCCNC(=N)N)C(=O)N[C@@H](Cc1ccc(O)cc1)C(=O)N[C@@H](Cc1ccc(O)cc1)C(=O)N[C@H](C(=O)N[C@@H](CCC(N)=O)C(=O)N[C@@H](CC(C)C)C(=O)N[C@@H](CCCNC(=N)N)C(=O)N[C@@H](Cc1c[nH]cn1)C(=O)N[C@@H](Cc1ccc(O)cc1)C(=O)N[C@@H](Cc1ccc(O)cc1)C(=O)N[C@@H](CC(N)=O)C(=O)N[C@@H](Cc1c[nH]c2ccccc12)C(=O)N[C@@H](CC(C)C)C(=O)N[C@H](C(=O)N[C@@H](CCCNC(=N)N)C(=O)N[C@@H](CCC(N)=O)C(=O)N[C@@H](CCCNC(=N)N)C(=O)N[C@@H](Cc1ccc(O)cc1)C(N)=O)[C@@H](C)O)C(C)C [Compound 93, N{alpha-4}-(3-methylbutanoyl)-N{epsilon-7}-(6-[(4S)-4-carboxy-4-(17-carboxyheptadecanamido)butanamido]hexanoyl)-[4A,7K,9E,17I,18Q,22V,23Q,28Y,30W,31L]-hPYY(4-36)]

Reference: US12391737B2, “Soluble NPY2 receptor agonists” (Boehringer Ingelheim International GmbH, priority 2020, dated 2025)
